The test deals with T1, Thymidine kinase (Varicella-zoster virus (strain Dumas) (HHV-3) (Human herpesvirus 3), UniProt P09250).
T1 sequence (P09250 whole entry): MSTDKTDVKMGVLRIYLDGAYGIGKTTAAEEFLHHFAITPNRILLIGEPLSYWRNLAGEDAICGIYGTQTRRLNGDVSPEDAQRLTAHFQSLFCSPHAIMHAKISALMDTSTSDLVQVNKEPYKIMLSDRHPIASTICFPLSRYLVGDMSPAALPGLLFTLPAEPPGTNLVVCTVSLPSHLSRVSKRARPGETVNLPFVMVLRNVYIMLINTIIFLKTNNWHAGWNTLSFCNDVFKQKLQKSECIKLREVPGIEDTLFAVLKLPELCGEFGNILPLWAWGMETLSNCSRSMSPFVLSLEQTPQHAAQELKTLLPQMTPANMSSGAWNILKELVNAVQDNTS
The test can be described thus: Inhibition of VZV thymidine kinase. Also on record: species or system Human alphaherpesvirus 3.

pIC50: −log10 of the molar value.

In turn, `O=c1nc2oc(-c3ccc(I)c(O)c3)cc2cn1[C@H]1C[C@H](O)[C@@H](CO)O1` gave a pIC50 of 5.38.
Regarding `O=c1nc2oc(-c3cccc(O)c3)cc2cn1[C@H]1C[C@H](O)[C@@H](CO)O1`, the pIC50 was 5.59.

For the origin of these results see ChEMBL document CHEMBL1139945, “Synthesis and biological evaluation of an 123I-labeled bicyclic nucleoside analogue (BCNA) as potential SPECT tracer for VZV-tk reporter gene imaging” (Bioorg Med Chem Lett, 2007).
